Legend:
Set-up in all cases: scale not given: the % may be the effect or the level left
Homo sapiens [1] = species: Homo sapiens; experiment: Inhibition of human non-glycosylated PAI1 R76A mutant using urokinase type plasminogen activator substrate assessed as change in IC50 value relative to wild type by direct chromogenic assay
Homo sapiens [2] = species: Homo sapiens; experiment: Inhibition of human non-glycosylated PAI1 Y79A mutant using urokinase type plasminogen activator substrate assessed as change in IC50 value relative to wild type by direct chromogenic assay
Homo sapiens [3] = species: Homo sapiens; experiment: Inhibition of human non-glycosylated PAI1 K80A mutant using urokinase type plasminogen activator substrate assessed as change in IC50 value relative to wild type by direct chromogenic assay
Homo sapiens [4] = species: Homo sapiens; experiment: Inhibition of human non-glycosylated PAI1 T93A mutant using urokinase type plasminogen activator substrate assessed as change in IC50 value relative to wild type by direct chromogenic assay
Homo sapiens [5] = species: Homo sapiens; experiment: Inhibition of human non-glycosylated PAI1 T94A mutant using urokinase type plasminogen activator substrate assessed as change in IC50 value relative to wild type by direct chromogenic assay
Homo sapiens [6] = species: Homo sapiens; experiment: Inhibition of human non-glycosylated PAI1 D95A mutant using urokinase type plasminogen activator substrate assessed as change in IC50 value relative to wild type by direct chromogenic assay
Homo sapiens [7] = species: Homo sapiens; experiment: Inhibition of human non-glycosylated PAI1 R118A mutant using urokinase type plasminogen activator substrate assessed as change in IC50 value relative to wild type by direct chromogenic assay
Homo sapiens [8] = species: Homo sapiens; experiment: Inhibition of human non-glycosylated PAI1 T120A mutant using urokinase type plasminogen activator substrate assessed as change in IC50 value relative to wild type by direct chromogenic assay
Homo sapiens [9] = species: Homo sapiens; experiment: Inhibition of human non-glycosylated PAI1 K122A mutant using urokinase type plasminogen activator substrate assessed as change in IC50 value relative to wild type by direct chromogenic assay
Homo sapiens [10] = species: Homo sapiens; experiment: Inhibition of human non-glycosylated PAI1 F114A mutant using urokinase type plasminogen activator substrate assessed as change in IC50 value relative to wild type by direct chromogenic assay
Homo sapiens [11] = species: Homo sapiens; experiment: Inhibition of human non-glycosylated PAI1 H143A mutant using urokinase type plasminogen activator substrate assessed as change in IC50 value relative to wild type by direct chromogenic assay

SMILES: O=C(O)C(=O)c1cn(Cc2ccccc2)c2ccc(-c3ccc(OC(F)(F)F)cc3)cc12
- Activity (Homo sapiens [1]): 48%
- Activity (Homo sapiens [2]): 28%
- Activity (Homo sapiens [3]): 14%
- Activity (Homo sapiens [4]): 27%
- Activity (Homo sapiens [5]): 54%
- Activity (Homo sapiens [6]): 58%
- Activity (Homo sapiens [7]): 7%
- Activity (Homo sapiens [8]): -21%
- Activity (Homo sapiens [9]): -25%
- Activity (Homo sapiens [10]): 3%
- Activity (Homo sapiens [11]): -14%

Source: ChEMBL document CHEMBL1156441, “Mechanism of inactivation of plasminogen activator inhibitor-1 by a small molecule inhibitor” (J Biol Chem, 2007)
